Measured values as given in patent publication US20150276568A1 (priority 2012, published 2015).

Key:
[1] = assay type: physicochemical; settings: extraction time varied 0-60 minutes; dihexyl ether; 900 rpm
[2] = from reference [17]; cited from earlier work

Structure (SMILES) | Extraction time for PALME system to enter equilibrium [1] [min] | Therapeutic range [2] [ng/mL]
O=C(CCCN1CCC(O)(c2ccc(Cl)cc2)CC1)c1ccc(F)cc1 [Haloperidol] | 15 | –
CCC(=O)C(CC(C)N(C)C)(c1ccccc1)c1ccccc1 (centres unmarked) [Methadone] | 15 | 100 to 500
CNCCC=C1c2ccccc2CCc2ccccc21 [Nortriptyline] | 30 | –
CCOC(=O)C1(c2ccccc2)CCN(C)CC1 [Pethidine] | – | 100 to 800
